Reference: patent publication US8859574B2 (IRM LLC, priority 2008, dated 2014)

Molecular target: T1, IGF-1R Ba/F3 (Homo sapiens, UniProt P08069)
T1 construct: fused on or other part: TEL- (or BCR-) IGF-1R in Ba/F3: the kinase part holds the site
Assay: Ba/F3 Cell Viability Inhibition Assay (IGF-1R Ba/F3)
Assay type: cell-based, murine
Conditions: Tel-TK transformed Ba/F3 cells, 48 hours, Britelite luminescence
Summary of the method: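 IL-3-independent murine Ba/F3 cells transformed with a TEL/BCR-fused IGF-1R kinase were seeded at 3750 cells/well and exposed to serially diluted compound for 48 h at 37 °C. Viability was read by Britelite luminescence. IC50 is the concentration giving 50% of DMSO-control viability, from a logistic fit.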

T1 sequence (P08069 999-1274 limits assumed): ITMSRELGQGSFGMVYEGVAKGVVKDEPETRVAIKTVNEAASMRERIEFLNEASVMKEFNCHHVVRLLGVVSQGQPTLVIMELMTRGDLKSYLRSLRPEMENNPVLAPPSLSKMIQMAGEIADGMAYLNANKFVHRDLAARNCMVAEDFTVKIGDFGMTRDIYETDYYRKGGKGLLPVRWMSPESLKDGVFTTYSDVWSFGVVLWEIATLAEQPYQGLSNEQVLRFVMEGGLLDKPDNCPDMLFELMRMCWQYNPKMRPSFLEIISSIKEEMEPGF

| SMILES | IC50 [nM] |
| --- | --- |
| CNC(=O)[C@H](C)N1CCC(c2cc(F)c(Nc3ncc(Cl)c(Nc4cc(C)[nH]n4)n3)cc2C)CC1 [Compound 164, (S)-2-(4-(4-(5-chloro-4-(5-methyl-1H-pyrazol-3-ylamino)pyrimidin-2-ylamino)-5-fluoro-2-methylphenyl)piperidin-1-yl)-N-methylpropanamide] | 33 |
| Cc1cc(Nc2nc(Nc3cc(C)c(C4CCN(C(C)C)CC4)cc3C)ncc2Cl)n[nH]1 [Compound 12, 5-chloro-N2-(4-(1-isopropylpiperidin-4-yl)-2,5-dimethylphenyl)-N4-(5-methyl-1H-pyrazol-3-yl)pyrimidine-2,4-diamine] | 10 |
| Cc1cc(Nc2nc(Nc3cc(C)c(C4CCNC(=O)C4)cc3C)ncc2Cl)n[nH]1 (centres unmarked) [Compound 151, 4-(4-(5-chloro-4-(5-methyl-1H-pyrazol-3-ylamino)pyrimidin-2-ylamino)-2,5-dimethylphenyl)piperidin-2-one] | 9 |
| Cc1cc(Nc2nc(Nc3cc(C)c(C4CCN(C(=O)[C@@H]5CCCN5C)CC4)cc3C)ncc2Cl)n[nH]1 [Compound 121, (S)-(4-(4-(5-chloro-4-(5-methyl-1H-pyrazol-3-ylamino)pyrimidin-2-ylamino)-2,5-dimethylphenyl)piperidin-1-yl)(1-methylpyrrolidin-2-yl)methanone] | 17 |
| Cc1cc(Nc2nc(Nc3cc(C)c(C4CCN(C(=O)[C@@H]5COCCN5)CC4)cc3F)ncc2Cl)n[nH]1 [Compound 143, (S)-(4-(4-(5-chloro-4-(5-methyl-1H-pyrazol-3-ylamino)pyrimidin-2-ylamino)-5-fluoro-2-methylphenyl)piperidin-1-yl)(morpholin-3-yl)methanone] | 71 |
| Cc1cc(Nc2nc(Nc3cc(C(F)(F)F)c(N4CCOCC4)cc3F)ncc2Cl)n[nH]1 [Compound 153, 5-chloro-N2-(2-fluoro-4-morpholino-5-(trifluoromethyl)phenyl)-N4-(5-methyl-1H-pyrazol-3-yl)pyrimidine-2,4-diamine] | 91 |
| CCc1cc(Nc2nc(Nc3cc(C)c(C4CCN(C5CS(=O)(=O)C5)CC4)cc3F)ncc2Cl)n[nH]1 [Compound 264, 5-Chloro-N2-{4-[1-(1,1-dioxo-1λ6-thietan-3-yl)-piperidin-4-yl]-2-fluoro-5-methyl-phenyl}-N4-(5-ethyl-1H-pyrazol-3-yl)-pyrimidine-2,4-diamine] | 21 |
| Cc1cc(Nc2nc(Nc3cc(C)c(C4CCN(C)CC4)cc3F)ncc2Cl)no1 [Compound 159, 5-chloro-N2-(2-fluoro-5-methyl-4-(1-methylpiperidin-4-yl)phenyl)-N4-(5-methylisoxazol-3-yl)pyrimidine-2,4-diamine] | 73 |
| Cc1cc(Nc2nc(Nc3cc(C)c(C4CCN(C(=O)CN5C(C)(C)CCCC5(C)C)CC4)cc3C)ncc2Cl)n[nH]1 [Compound 104, 1-(4-(4-(5-chloro-4-(5-methyl-1H-pyrazol-3-ylamino)pyrimidin-2-ylamino)-2,5-dimethylphenyl)piperidin-1-yl)-2-(2,2,6,6-tetramethylpiperidin-1-yl)ethanone] | 18 |
| Cc1cc(Nc2nc(Nc3cc(Cl)c(C4CCN(CCC(F)(F)F)CC4)cc3C)ncc2Cl)n[nH]1 [Compound 27, 5-chloro-N2-(5-chloro-2-methyl-4-(1-(3,3,3-trifluoropropyl)piperidin-4-yl)phenyl)-N4-(5-methyl-1H-pyrazol-3-yl)pyrimidine-2,4-diamine] | 44 |
| Cc1cc(Nc2nc(Nc3cc(C)c(C4CCN(CCC#N)CC4)cc3F)ncc2Cl)n[nH]1 [Compound 200, 3-(4-(4-(5-chloro-4-(5-methyl-1H-pyrazol-3-ylamino)pyrimidin-2-ylamino)-5-fluoro-2-methylphenyl)piperidin-1-yl)propanenitrile] | 36 |
| Cc1cc(Nc2ncc(Cl)c(Nc3cc(C4CC4)[nH]n3)n2)c(F)cc1C1CCN(CC(N)=O)CC1 [Compound 34, 2-(4-(4-(5-chloro-4-(5-cyclopropyl-1H-pyrazol-3-ylamino)pyrimidin-2-ylamino)-5-fluoro-2-methylphenyl)piperidin-1-yl)acetamide] | 49 |
| Cc1cc(C2CCN(CC(N)=O)CC2)c(C)cc1Nc1ncc(Cl)c(Nc2cc(C(F)(F)F)[nH]n2)n1 [Compound 217, 2-(4-(4-(5-chloro-4-(5-(trifluoromethyl)-1H-pyrazol-3-ylamino)pyrimidin-2-ylamino)-2,5-dimethylphenyl)piperidin-1-yl)acetamide] | 34 |
| Cc1cc(Nc2nc(Nc3cc(C)c(C4CCN(C(C)C(=O)O)CC4)cc3F)ncc2Cl)n[nH]1 (centres unmarked) [Compound 54, 2-(4-(4-(5-chloro-4-(5-methyl-1H-pyrazol-3-ylamino)pyrimidin-2-ylamino)-5-fluoro-2-methylphenyl)piperidin-1-yl)propanoic acid] | 1530 |
| Cc1cc(Nc2nc(Nc3cc(C)c(C4CCN(Cc5noc(C(C)C)n5)CC4)cc3C)ncc2Cl)n[nH]1 [Compound 305, 5-chloro-N2-(4-(1-((5-isopropyl-1,2,4-oxadiazol-3-yl)methyl)piperidin-4-yl)-2,5-dimethylphenyl)-N4-(5-methyl-1H-pyrazol-3-yl)pyrimidine-2,4-diamine] | 25 |
| Cc1ccc(N2CCC(c3cc(F)c(Nc4ncc(Cl)c(Nc5cc(C)[nH]n5)n4)cc3C)CC2)nn1 [Compound 277, 5-Chloro-N2-(2-fluoro-5-methyl-4-(1-(6-methylpyridazin-3-yl)piperidin-4-yl)phenyl)-N4-(5-methyl-1H-pyrazol-3-yl)pyrimidine-2,4-diamine] | 97 |
| Cc1cc(Nc2nc(Nc3cc(C)c(C4CCN(C(=O)N5CCNC5=O)CC4)cc3C)ncc2Cl)n[nH]1 [Compound 113, 1-(4-(4-(5-chloro-4-(5-methyl-1H-pyrazol-3-ylamino)pyrimidin-2-ylamino)-2,5-dimethylphenyl)piperidine-1-carbonyl)imidazolidin-2-one] | 13 |
| Cc1cc(C2CCN(CCO)CC2)c(C)cc1Nc1ncc(Cl)c(Nc2cc(C3CC3)[nH]n2)n1 [Compound 204, 2-(4-(4-(5-chloro-4-(5-cyclopropyl-1H-pyrazol-3-ylamino)pyrimidin-2-ylamino)-2,5-dimethylphenyl)piperidin-1-yl)ethanol] | 16 |
| Cc1cc(Nc2nc(Nc3cc(C)c(C4CCN([C@H]5CC[C@@H](O)CC5)CC4)cc3F)ncc2Cl)n[nH]1 [Compound 311, Cis-4-(4-(4-(5-chloro-4-(5-methyl-1H-pyrazol-3-ylamino)pyrimidin-2-ylamino)-5-fluoro-2-methylphenyl)piperidin-1-yl)cyclohexanol] | 21 |
| CCNC(=O)C(CC)N1CCC(c2cc(C)c(Nc3ncc(Cl)c(Nc4cc(C)[nH]n4)n3)cc2C)CC1 (centres unmarked) [Compound 190, 2-(4-(4-(5-chloro-4-(5-methyl-1H-pyrazol-3-ylamino)pyrimidin-2-ylamino)-2,5-dimethylphenyl)piperidin-1-yl)-N-ethylbutanamide] | 7 |
| Cc1cc(Nc2nc(Nc3cc(Cl)c(C4CCN(C(=O)CN5CCC5)CC4)cc3C)ncc2Cl)n[nH]1 [Compound 96, 2-(azetidin-1-yl)-1-(4-(2-chloro-4-(5-chloro-4-(5-methyl-1H-pyrazol-3-ylamino)pyrimidin-2-ylamino)-5-methylphenyl)piperidin-1-yl)ethanone] | 24 |
| Cc1cc(Nc2nc(Nc3cc(C)c(C4CCN(C(N)=O)CC4)cc3C)ncc2Cl)n[nH]1 [Compound 72, 4-(4-(5-chloro-4-(5-methyl-1H-pyrazol-3-ylamino)pyrimidin-2-ylamino)-2,5-dimethylphenyl)piperidine-1-carboxamide] | 6 |
| CCN1CCC(c2cc(C)c(Nc3ncc(Cl)c(Nc4cc(C)[nH]n4)n3)cc2C(F)(F)F)CC1 [Compound 241, 5-chloro-N2-(4-(1-ethylpiperidin-4-yl)-2-methyl-5-(trifluoromethyl)phenyl)-N4-(5-methyl-1H-pyrazol-3-yl)pyrimidine-2,4-diamine] | 68 |
| Cc1cc(Nc2nc(Nc3cc(C)c(C4CCN(C(=O)N5CCOCC5)CC4)cc3F)ncc2Cl)n[nH]1 [Compound 111, (4-(4-(5-chloro-4-(5-methyl-1H-pyrazol-3-ylamino)pyrimidin-2-ylamino)-5-fluoro-2-methylphenyl)piperidin-1-yl)(morpholino)methanone] | 8 |
| Cc1cc(Nc2nc(Nc3cc(C)c(C4CCN(CCO)CC4)cc3C)ncc2Cl)n[nH]1 [Compound 23, 2-(4-(4-(5-chloro-4-(5-methyl-1H-pyrazol-3-ylamino)pyrimidin-2-ylamino)-2,5-dimethylphenyl)piperidin-1-yl)ethanol] | 6 |
| CNC(C)(C)C(=O)N1CCC(c2cc(C)c(Nc3ncc(Cl)c(Nc4cc(C)[nH]n4)n3)cc2Cl)CC1 [Compound 88, 1-(4-(2-chloro-4-(5-chloro-4-(5-methyl-1H-pyrazol-3-ylamino)pyrimidin-2-ylamino)-5-methylphenyl)piperidin-1-yl)-2-methyl-2-(methylamino)propan-1-one] | 7 |
| Cc1cc(Nc2nc(Nc3cc(C)c(C4CCCCN4C(=O)CN(C)C)cc3C)ncc2Cl)n[nH]1 (centres unmarked) [Compound 83, 1-(2-(4-(5-chloro-4-(5-methyl-1H-pyrazol-3-ylamino)pyrimidin-2-ylamino)-2,5-dimethylphenyl)piperidin-1-yl)-2-(dimethylamino)ethanone] | 13 |
| Cc1cc(Nc2nc(Nc3cc(C)c(C4CCN(C5CC5)CC4)cc3F)ncc2Cl)n[nH]1 [Compound 210, 5-chloro-N^2-(4-(1-cyclopropylpiperidin-4-yl)-2-fluoro-5-methylphenyl)-N^4-(5-methyl-1H-pyrazol-3-yl)pyrimidine-2,4-diamine] | 32 |
| Cc1cc(Nc2nc(Nc3cc(C)c(C4CCN(C5COC5)CC4)cc3F)ncc2Cl)n[nH]1 [Compound 306, 5-chloro-N2-(2-fluoro-5-methyl-4-(1-(oxetan-3-yl)piperidin-4-yl)phenyl)-N4-(5-methyl-1H-pyrazol-3-yl)pyrimidine-2,4-diamine] | 15 |
